Assay results: patent publication US20050238642A1, “Modified bouganin proteins, cytotoxins and methods and uses thereof” (priority 2004, published 2005)

System: cell-free protein synthesis
Experiment: Cell-free protein synthesis assay (luciferase, coupled transcription/translation)
Type: biochemical
Set-up: key to Activity in luciferase assay: ++: same or higher than WT protein.; +: within 2-fold of WT activity.; +/−: within 3-fold of WT activity.; −−: less than one-third of WT activity
Conditions: for Activity in luciferase assay: relative to wild-type protein
Excerpt: The term “biological activity” as used herein is the ability of the modified or non-modified bouganin protein to inhibit protein synthesis on ribosomes, which can be assessed in a number of ways. It should be noted that a modified bouganin protein will still have biological activity even if such activity is lower than that of the non-modified protein, however it would need to have some level of detectable activity. For example, the biological activity of the modified or non-modified bouganin protein can be assessed by identifying their N-glycosidase activity, and in particular with sufficient activity to provide significant inhibition of protein translation. One such suitable assay involves testing the activity of the variant bouganin proteins in comparison to non-modified bouganin in a cell-free protein synthesis assay. A coupled transcription/translation mix containing methionine, DNA encoding the reporter protein luciferase and serial dilutions of non-modified and modified bouganin protein are co-incubated. The levels of translated luciferase are readily detected using a luminescence counter following addition of a substrate reagent. The measured luminescence is inversely proportional to the bouganin N-glycosidase activity present in the reaction. It is usual to provide a negative control such as an in-active bouganin protein, for example containing a Y70A substitution.
The biological activity of the proteins of the invention can equally be assessed in many ways. In one embodiment, modified bouganin molecules are identified with N-glycosidase activity, and in particular with sufficient activity to provide significant inhibition of protein translation. One such suitable assay involves testing the activity of the modified bouganin proteins in comparison to non-modified bouganin in a cell-free protein synthesis assay. A coupled transcription/translation mix containing methionine, DNA encoding the reporter protein luciferase and serial dilutions of non-modified and modified bouganin proteins are co-incubated. The levels of translated luciferase are readily detected using a luminescence counter following addition of a substrate reagent. The measured luminescence is inversely proportional to the bouganin N-glycosidase activity present in the reaction. It is usual to provide a negative control such as an in-active bouganin protein for example containing a Y70A substitution.
The activity of the wild-type and modified (mutant) bouganin proteins was tested by measuring their ability to inhibit protein synthesis in a cell-free protein synthesis assay.
A mixture of 10 μl TNT Coupled Transcription/Translation mix (Promega), 20 […] methionine, 120 ng pT7 luciferase DNA (Promega) and serial dilutions of WT and mutant bouganin protein in a final volume of 12.5 μl were incubated at 30° C. for one hour, after which the reaction was stopped by addition of 100 μl “SteadyGlow” luciferase assay reagent (Promega). The luciferase activity was measured using a Wallac luminescence counter. Active bouganin protein is detected as a decrease in measured luciferase activity. Each modified bouganin protein was tested in at least 5 concentrations, with each data point in duplicate. Positive and negative controls were included in each experiment.
In each instance results are expressed relative to wild-type protein activity.

Substance	Activity in luciferase assay (single substitution variants)	other results
Bou157: modified bouganin with V123A, D127A, Y133Q, I152A (SEQ ID No 14)		Activity in luciferase assay (multiple substitution variants): ++
Bou156: modified bouganin with V123A, D127A, Y133N, I152A (SEQ ID No 13)		Activity in luciferase assay (multiple substitution variants): ++; potency in cell-free assay (when conjugated to the Fab fragment (FIG. 12)): retained its potency
I158P: modified bouganin protein with substitution I158P	−−	
Y70A: inactive bouganin with Y70A substitution, negative control (SEQ ID NO. 129) [reference compound]	−−	
E151T I152E	−−	
I152Q: modified bouganin protein with substitution I152Q	++	
V123N: modified bouganin protein with substitution V123N	−−	
Y133P: modified bouganin protein with substitution Y133P	−−	
F155H: modified bouganin protein with substitution F155H	−−	
Y133R: modified bouganin protein with substitution Y133R	++	
V123P: modified bouganin protein with substitution V123P	−−	
V123D: modified bouganin protein with substitution V123D	−−	
V123H: modified bouganin protein with substitution V123H	−−	
Y133G: modified bouganin protein with substitution Y133G	++	
V123K: modified bouganin protein with substitution V123K	−−	
V123G: modified bouganin protein with substitution V123G	−−	
V123S: modified bouganin protein with substitution V123S	−−	
E129G: modified bouganin protein with substitution E129G	++	
E129Q: modified bouganin protein with substitution E129Q	+/− (within 3-fold of WT activity.)	
E129R: modified bouganin protein with substitution E129R	−−	

Substance	Activity in luciferase assay (single substitution variants)	other results
Y133A: modified bouganin protein with substitution Y133A	++	
Y133H: modified bouganin protein with substitution Y133H	++	
V123Q: modified bouganin protein with substitution V123Q	++	
Y133E: modified bouganin protein with substitution Y133E	+/− (within 3-fold of WT activity.)	
V123T: modified bouganin protein with substitution V123T	+/− (within 3-fold of WT activity.)	
I152E: modified bouganin protein with substitution I152E	−−	
Y133S: modified bouganin protein with substitution Y133S	++	
I152A: modified bouganin protein with substitution I152A	++	
Y133K: modified bouganin protein with substitution Y133K	++	
Y133N: modified bouganin protein with substitution Y133N	++	
V123R: modified bouganin protein with substitution V123R	−−	
V123E: modified bouganin protein with substitution V123E	−−	
Y133Q: modified bouganin protein with substitution Y133Q	++	
E129K: modified bouganin protein with substitution E129K	−−	
D127G: modified bouganin protein with substitution D127G	++	
Y133T: modified bouganin protein with substitution Y133T	++	
Y133D: modified bouganin protein with substitution Y133D	++	
D127A: modified bouganin protein with substitution D127A	++	
F155P: modified bouganin protein with substitution F155P	−−	
V123A: modified bouganin protein with substitution V123A	++	
